These results are taken from patent US20250270227A1, “CAMPTOTHECIN DERIVATIVE, AND PHARMACEUTICAL COMPOSITION AND USE THEREOF” (SIMCERE ZAIMING PHARMACEUTICAL CO., LTD., priority 2021, published 2025).

A short description of series [1]: Plasma protein binding rate (equilibrium dialysis). The note with it: pH 7.4. In kind it is in vitro ADME, human. The method, then: The protein binding rates of the compounds of the present disclosure in human and mouse plasma were determined by the following experimental method.
• 1. Human plasma (BioIVT), CD-1 mouse plasma (BiolVT) • 2. Na2HPO4 (Sigma S5136-500G) • 3. NaH2PO4 (Sigma 53139-500G) • 4. NaCl (Sigma S5886-IKG) • 5. 96-well equilibrium dialysis plate (HTDialysis LLC, Gales Ferry, CT, HTD96B) and equilibrium dialysis membrane (MWCO 12-14K, 1101) • 6. Positive control compound warfarin • 7. ABI QTrap 5500 liquid chromatography-mass spectrometry
• 1. Preparation of a buffer with a concentration of 100 mM sodium phosphate and 150 mM NaCl: An alkaline solution with a concentration of 14.2 g/L Na2HPO4 and 8.77 g/L NaCl was prepared with ultrapure water, and an acidic solution with a concentration of 12.0 g/L NaH2PO4 and 8.77 g/L NaCl was prepared with ultrapure water. Then the alkaline solution was titrated to pH 7.4 with the acidic solution to prepare a buffer with a concentration of 100 mM sodium phosphate and 150 mM NaCl. • 2. Preparation of dialysis membrane: The dialysis membrane was soaked in ultrapure water for 60 min to separate the membrane into two pieces, then soaked in 20% ethanol for 20 min, and finally soaked in a buffer used for dialysis for 20 min. • 3. Preparation of plasma: The frozen plasma was quickly thawed at room temperature, and then centrifuged at 3220 g for 10 min at 4° C. to remove clots, and the supernatant was collected into a new centrifugal tube. The pH of the plasma was determined and recorded, and the plasma with pH of 7-8 was used. • 4. Preparation of compound-containing plasma samples: The 10 mM stock solution of the compound of the present invention or the positive control compound was diluted with DMSO to obtain a 200 μM working solution. To 597 μl of human or mouse plasma was added 3 μl of 200 μM compound working solution to obtain a plasma sample with a final concentration of 1 μM. • 5. […]
The peak areas of the compound on the buffer side and the plasma side were determined. […]

Series [2] deals with Human colorectal cancer cell line HCT116. Put plainly: Test 1 of anti-proliferative activity against tumor cells (Cell-Titer Glo). Type of series: cell-based. Put shortly:
(§1)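 HCT116, SKBR3 and OVCAR3 cells seeded 24 h, then treated with 9-point 3-fold dilutions (final 0-300 nM); HCT116 incubated 3 days, SKBR3 and OVCAR3 5 days at 37° C, 5% CO2. Viability by Cell-Titer Glo luminescence, inhibition normalised to DMSO and no-cell wells, IC50 fitted.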

For series [3], the system named is human breast cancer cell line SKBR3. Described as above. Type of series: cell-based. Put shortly: as §1
In series [4] the test system is human ovarian cancer cell line OVCAR3. The description is as above. Type of series: cell-based. In short, it runs like this: as §1
[5] abbreviates: Homo sapiens, HCT-116, 72 h, read-out: HCT116 Anti-proliferative activity IC50 (nM), HCT116 cells, cultured 3 days with compound, Cell-Titer Glo.
Where [6] appears, read: Homo sapiens, SK-BR-3, 120 h, read-out: SKBR3 Anti-proliferative activity IC50 (nM), SKBR3 cells, cultured 5 days with compound, Cell-Titer Glo.
[7] abbreviates: Homo sapiens, OVCAR-3, 120 h, OVCAR3 cells, cultured 5 days with compound, Cell-Titer Glo, read-out: OVCAR3 Anti-proliferative activity IC50.
The mark [8] stands for this setting: Homo sapiens, HCT-116, 72 h, HCT116 cells, cultured 3 days with compound, Cell-Titer Glo, read-out: HCT116 Anti-proliferative activity IC50.
Setting [9] is: Homo sapiens, SK-BR-3, 120 h, SKBR3 cells, cultured 5 days with compound, Cell-Titer Glo, read-out: SKBR3 Anti-proliferative activity IC50.

Where two headings read alike, the source gives them in different places.

With `CC[C@@]1(O)C(=O)OCc2c1cc1n(c2=O)Cc2c-1nc1cc3c(cc1c2CNC(=O)C(O)C1CC1)OCO3` (single isomer, unassigned) [Compound 14-P1], the fraction unbound at 6 h, 1 μM in series [1] (human plasma, 1 μM, equilibrium dialysis 6 h, 37° C., read-out: % Human plasma protein binding rate (converted)) was 0.106. Also, the IC50 in series [2] (setting [5]) came to 9.8 nM; in series [3] (setting [6]) it was 2.1 nM; in series [4] (setting [7]) it was 0.6 nM.

Consider `CC[C@@]1(O)C(=O)OCc2c1cc1n(c2=O)Cc2c-1nc1cc3c(cc1c2CNC(=O)C(O)C1CC1)OCO3` (single isomer, unassigned) [Compound 14-P2], for which the IC50 in series [2] (read-out: HCT116 Anti-proliferative activity IC50, HCT116 cells, cultured 3 days with compound, Cell-Titer Glo) is 12.4 nM; in series [3] (read-out: SKBR3 Anti-proliferative activity IC50, SKBR3 cells, cultured 5 days with compound, Cell-Titer Glo) it was 3.5 nM; in series [4] (OVCAR3 cells, cultured 5 days with compound, Cell-Titer Glo, read-out: OVCAR3 Anti-proliferative activity IC50) it was 1 nM.

In turn, `CC[C@@]1(O)C(=O)OCc2c1cc1n(c2=O)Cc2c-1nc1cc3c(c(F)c1c2CNC(=O)[C@@H](O)C1CC1)OCO3` (single isomer, unassigned) [Compound 37-P1] had a fraction unbound at 6 h, 1 μM in series [1] (human, plasma) of 0.128. In addition, the results for the half-inhibitory concentration (IC50) in series [2] (setting [8]), in series [3] (setting [9]) and in series [4] (setting [7]) were 4.8 nM, 2.1 nM and 0.5 nM, respectively.

For the compound `CC[C@@]1(O)C(=O)OCc2c1cc1n(c2=O)Cc2c-1nc1cc3c(cc1c2CNC(=O)C(O)C1CC1)OCO3` (stereo partly drawn) [Compound 14, 2-cyclopropyl-N-(((S)-7-ethyl-7-hydroxy-8,11-dioxo-7,8,11,13-tetrahydro-10H-[1,3]dioxolo[4,5-g]pyrano[3′,4′:6,7]indolizino[1,2-b]quinolin-14-yl)methyl)-2-hydroxyacetamide], the IC50 was determined as 8.4 nM in series [2] (setting [5]); 2.2 nM in series [3] (setting [6]); 0.9 nM in series [4] (Homo sapiens, OVCAR-3, 120 h, read-out: OVCAR3 Anti-proliferative activity IC50 (nM)).

`[2H]C1([2H])Oc2cc3nc4c(c(CNC(=O)C(O)C5CC5)c3cc2O1)Cn1c-4cc2c(c1=O)COC(=O)[C@]2(O)CC` (stereo partly drawn) [Compound 39, 2-cyclopropyl-N-(((S)-7-ethyl-7-hydroxy-8,11-dioxo-7,8,11,13-tetrahydro-10H-[1,3]dioxolo[4,5-g]pyrano[3′,4′:6,7]indolizino[1,2-b]quinolin-14-yl-2,2-d2)methyl)-2-hydroxyacetamide] gave a fraction unbound at 6 h, 1 μM in series [1] (human, plasma) of 0.081. Besides, the values for the IC50 in series [2] (setting [8]), in series [3] (setting [9]) and in series [4] (setting [7]) were 9.5 nM, 2.9 nM and 1 nM, respectively.
